Legend:
[1] = molecular target: T1, hSTING c-terminal domain (purified hSTING aa154-342) (Homo sapiens, UniProt Q86WV6); test: Thermal shift assay for measuring the relative binding affinity to hSTING c-terminal domain; settings: Tm of sample minus mean Tm of negative control (buffer, 2% DMSO), SYPRO Orange
T1 construct: Purified hSTING (aa154-342)
Experimental: Test Example 1. Thermal Shift Assay for Measuring the Relative Binding Affinity to hSTING c-Terminal Domain
From each of the 10 mM stock solutions of compounds in DMSO, dilutions are made to create samples with three concentrations 10 mM, 5 mM and 2.5 mM. From these dilutions a final 50 fold dilution is made into assay buffer, giving concentrations of 200 μM, 100 μM, and 50 μM. From each of the buffer dilutions, 5 μL is added to the 384 well assay plate. A positive control is setup with cGAMP using the same dilution scheme as the ligands. A baseline thermal shift for the negative control is determined using buffer and 2% DMSO.
An aliquot of protein is thawed on ice and SYPRO orange reagent is brought to room temperature. The 5000× SYPRO orange stock is diluted in assay buffer to a concentration of 10×. Protein is diluted to a concentration of 10 μM in the prepared buffer/dye solution. Five micro-liters of protein/buffer/dye solution is added to each of the sample and control wells, and the plate is sealed with the provided films. The plate is centrifuged for 5 min at 20° C. at 1000 rpm.
On the Light Cycler instrument, measurements are made over a temperature gradient from 20° C. to 99° C. at 0.07° C./s and data acquisitions collected at a rate of 8/° C. is used to measure the change in fluorescence as a function of temperature. Data analysis is performed using the Roche Light Cycler Software to determine the melting temperature (Tm ° C.) of each sample. A mean Tm ° C. for the negative control is calculated and subtracted from each of the samples to generate the ΔTm ° C. values for each of the ligands.
The relative binding affinity to hSTING c-terminal domain of the compounds of the present invention was determined by the above assay, and ΔTm ° C. values are shown in the following table 1.

[2] = molecular target: T2, STING in THP1-Dual KI-hSTING-R232 cells (Homo sapiens, UniProt Q86WV6, H232R); test: Human THP1 reporter cell assay (IRF luciferase reporter); type: cell-based; settings: 24 hours incubation
T2 construct: host or cells: THP1-Dual KI-hSTING-R232 cells (human monocytic THP-1 reporter line)
Experimental: Test Example 2. Human THP1 Reporter Cell Assay
• 1. Human THP1-Dual KI-hSTING-R232 Cells (InvivoGen, Cat. #thpd-r232) • 2. QUANTI-LUC (InvivoGen, Cat. #rep-qlc2) • 3. Media for cell culture and compound dilution: RPMI with high glucose and glutamine (Genesee, Cat. #25-506), 10% fetal bovine serum (Life Technologies, Cat. #10082147), 25 mM HEPES (Genesee, Cat. #25-534), 100 μg/ml Normocin (InvivoGen, Cat. #ant-nr-2), 10 μg/ml blasticidin (InvivoGen, Cat. #ant-bl-05), 100 μg/ml Zeocin (InvivoGen, Cat. #ant-zn-5p) and Penicillin-Streptomycin (100×) (Life Technologies, Cat. #15140122) • 4. Infinite M1000 plate reader (TECAN) Experimental Procedure
Activation of STING in THP1-Dual KI-hSTING-R232 cells was determined by measuring the luminescence signal resulting from the expression of the IRF luciferase reporter gene. All reagent preparation and assay procedures were conducted according to the protocols provided by InvivoGen. In brief, test compounds and cells (1×10^5 cells per well) were dispensed into 96-well plates with a final volume per well of 150 μl. Plates were incubated in a humidified, 5% CO2 incubator at 37° C. for 24 hours. The expression level of the reporter gene was measured by transferring 20 μl of the supernatant to a non-transparent 96-well plate to which 50 μl of QUANTI-LUC was dispensed into each well. The resulting luminescence signal was immediately read using a TECAN plate reader. The background luminescence signal from media was subtracted. The fold induction effect of the luminescence signal at each compound concentration was determined relative to controls that lack compound treatment. The plot of fold induction effect versus the log of compound concentration was fit in GraphPad Prism with a 4-parameter concentration response equation to calculate EC50 and Emax.
Activation of STING in THP1 of the compounds in the present invention was determined by the above assay, and EC50 values are shown in the following table 2.

T2 sequence (Q86WV6 whole entry H232R): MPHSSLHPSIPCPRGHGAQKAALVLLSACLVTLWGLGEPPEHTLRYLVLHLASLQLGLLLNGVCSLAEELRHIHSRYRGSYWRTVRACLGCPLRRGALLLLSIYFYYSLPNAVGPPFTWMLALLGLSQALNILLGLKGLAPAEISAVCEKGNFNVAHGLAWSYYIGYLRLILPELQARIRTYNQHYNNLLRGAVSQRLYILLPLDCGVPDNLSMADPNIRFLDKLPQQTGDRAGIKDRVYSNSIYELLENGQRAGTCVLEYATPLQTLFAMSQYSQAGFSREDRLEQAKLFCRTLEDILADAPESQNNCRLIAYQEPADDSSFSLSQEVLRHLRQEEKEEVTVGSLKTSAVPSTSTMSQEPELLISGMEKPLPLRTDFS
T1 sequence (Q86WV6 154-342): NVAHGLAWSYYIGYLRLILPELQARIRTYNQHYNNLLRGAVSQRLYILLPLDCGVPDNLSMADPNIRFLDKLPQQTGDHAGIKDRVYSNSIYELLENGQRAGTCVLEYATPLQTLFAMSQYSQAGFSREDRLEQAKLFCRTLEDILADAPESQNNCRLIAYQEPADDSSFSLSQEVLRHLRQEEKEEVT

| Compound | ΔTm at 100 µM [1] | EC50 [2] |
| --- | --- | --- |
| CCn1nc(C)cc1C(=O)Nc1nc2cc(C(N)=O)cc3c2n1CCO3 [Example 2, 2-(1-ethyl-3-methyl-1H-pyrazole-5-carboxamido)-3,4-dihydro-5-oxa-1,2a-diazaacenaphthylene-7-carboxamide] | 1.1 °C | – |
| CCn1nc(C)cc1C(=O)Nc1nc2cc(C(N)=O)cc3c2n1[C@@H](CC(O)CO)CO3 (stereo partly drawn) [Example 9, (3S)-3-(2,3-dihydroxypropyl)-2-(1-ethyl-3-methyl-1H-pyrazole-5-carboxamido)-3,4-dihydro-5-oxa-1,2a-diazaacenaphthylene-7-carboxamide] | -0.1 °C | – |
| CCC=CC[C@H]1COc2cc(C(N)=O)cc3nc(NC(=O)c4cc(C)nn4CC)n1c23 [Example 8, (S)-2-(1-ethyl-3-methyl-1H-pyrazole-5-carboxamido)-3-(pent-2-en-1-yl)-3,4-dihydro-5-oxa-1,2a-diazaacenaphthylene-7-carboxamide] | 7.5 °C | 2600 nM |
| C=CCC1CCCOc2cc(C(N)=O)cc3nc(NC(=O)c4cc(C)nn4CC)n1c23 (stereo not shown) [Example 27, 10-allyl-1-(1-ethyl-3-methyl-1H-pyrazole-5-carboxamido)-7,8,9,10-tetrahydro-6-oxa-2,10a-diazacycloocta[cd]indene-4-carboxamide] | – | > 20000 nM |
| CCn1nc(C)cc1C(=O)Nc1nc2cc(C(N)=O)cc3c2n1[C@@H](C/C=C/CC(CC(=O)c1cc2cc(OC)c(OC)cc2s1)C(=O)O)CO3 (stereo partly drawn) [Example 28, (E)-6-((S)-7-carbamoyl-2-(1-ethyl-3-methyl-1H-pyrazole-5-carboxamido)-3,4-dihydro-5-oxa-1,2a-diazaacenaphthylen-3-yl)-2-(2-(5,6-dimethoxybenzo[b]thiophen-2-yl)-2-oxoethyl)hex-4-enoic acid] | – | > 20000 nM |
| C=CC[C@H]1CN(C)c2cc(C(N)=O)cc3nc(NC(=O)c4cc(C)nn4CC)n1c23 [Example 31, (S)-4-allyl-2-(1-ethyl-3-methyl-1H-pyrazole-5-carboxamido)-6-methyl-5,6-dihydro-4H-imidazo[1,5,4-de]quinoxaline-8-carboxamide] | – | 2400 nM |
| CCn1nc(C)cc1C(=O)Nc1nc2cc(C(N)=O)cc(OC)c2n1CCCNCCC1COc2cc(C(N)=O)cc3nc(NC(=O)c4cc(C)nn4CC)n1c23 (stereo not shown) [Example 17, 3-(2-((3-(5-carbamoyl-2-(1-ethyl-3-methyl-1H-pyrazole-5-carboxamido)-7-methoxy-1H-benzo[d]imidazol-1-yl)propyl)amino)ethyl)-2-(1-ethyl-3-methyl-1H-pyrazole-5-carboxamido)-3,4-dihydro-5-oxa-1,2a-diazaacenaphthylene-7-carboxamide] | 2 °C | – |
| C=CCOc1cc(C(N)=O)cc2nc(NC(=O)c3cc(C)nn3CC)n(CCC[C@H]3COc4cc(C(N)=O)cc5nc(NC(=O)c6cc(C)nn6CC)n3c45)c12 [Example 25, (S)-3-(3-(7-(allyloxy)-5-carbamoyl-2-(1-ethyl-3-methyl-1H-pyrazole-5-carboxamido)-1H-benzo[d]imidazol-1-yl)propyl)-2-(1-ethyl-3-methyl-1H-pyrazole-5-carboxamido)-3,4-dihydro-5-oxa-1,2a-diazaacenaphthylene-7-carboxamide] | 13 °C | 500 nM |
| CCC[C@H]1COc2cc(C(N)=O)cc3nc(NC(=O)c4cc(C)nn4CC)n1c23 [Example 7, (S)-2-(1-ethyl-3-methyl-1H-pyrazole-5-carboxamido)-3-propyl-3,4-dihydro-5-oxa-1,2a-diazaacenaphthylene-7-carboxamide] | 5.4 °C | – |
| CCn1nc(C)cc1C(=O)Nc1nc2cc(C(N)=O)cc3c2n1[C@@H](CCCNC(=O)OCc1ccccc1)CO3 [Example 4, (S)-benzyl (3-(7-carbamoyl-2-(1-ethyl-3-methyl-1H-pyrazole-5-carboxamido)-3,4-dihydro-5-oxa-1,2a-diazaacenaphthylen-3-yl)propyl)carbamate] | 4.6 °C | – |
| C=CC[C@H]1CNc2cc(C(N)=O)cc3nc(NC(=O)c4cc(C)nn4CC)n1c23 [Example 29, (S)-4-allyl-2-(1-ethyl-3-methyl-1H-pyrazole-5-carboxamido)-5,6-dihydro-4H-imidazo[1,5,4-de]quinoxaline-8-carboxamide] | – | 12000 nM |
| C=CC[C@H]1CN(CCCOC)c2cc(C(N)=O)cc3nc(NC(=O)c4cc(C)nn4CC)n1c23 [Example 30, (S)-4-allyl-2-(1-ethyl-3-methyl-1H-pyrazole-5-carboxamido)-6-(3-methoxypropyl)-5,6-dihydro-4H-imidazo[1,5,4-de]quinoxaline-8-carboxamide] | – | 1500 nM |
| CCn1nc(C)cc1C(=O)Nc1nc2cc(C(N)=O)cc(OCCCN(C)C)c2n1CCC[C@H]1COc2cc(C(N)=O)cc3nc(NC(=O)c4cc(C)nn4CC)n1c23 [Example 24, (S)-3-(3-(5-carbamoyl-7-(3-(dimethylamino)propoxy)-2-(1-ethyl-3-methyl-1H-pyrazole-5-carboxamido)-1H-benzo[d]imidazol-1-yl)propyl)-2-(1-ethyl-3-methyl-1H-pyrazole-5-carboxamido)-3,4-dihydro-5-oxa-1,2a-diazaacenaphthylene-7-carboxamide] | 12 °C | 350 nM |
| CCn1nc(C)cc1C(=O)N(C)c1nc2cc(C(N)=O)cc3c2n1CCO3 [Example 3, 2-(1-ethyl-N,3-dimethyl-1H-pyrazole-5-carboxamido)-3,4-dihydro-5-oxa-1,2a-diazaacenaphthylene-7-carboxamide] | 0.7 °C | – |
| C=CC[C@@H]1COc2cc(C(N)=O)cc3nc(NC(=O)c4cc(C)nn4CC)n1c23 [Example 6, (R)-3-allyl-2-(1-ethyl-3-methyl-1H-pyrazole-5-carboxamido)-3,4-dihydro-5-oxa-1,2a-diazaacenaphthylene-7-carboxamide] | -0.5 °C | – |
| CCn1nc(C)cc1C(=O)Nc1nc2cc(C(N)=O)cc(OCCCOP(=O)(O)O)c2n1CCC[C@H]1COc2cc(C(N)=O)cc3nc(NC(=O)c4cc(C)nn4CC)n1c23 [Example 23, (S)-3-((5-carbamoyl-1-(3-(7-carbamoyl-2-(1-ethyl-3-methyl-1H-pyrazole-5-carboxamido)-3,4-dihydro-5-oxa-1,2a-diazaacenaphthylen-3-yl)propyl)-2-(1-ethyl-3-methyl-1H-pyrazole-5-carboxamido)-1H-benzo[d]imidazol-7-yl)oxy)propyl dihydrogen phosphate] | 11 °C | 700 nM |
| C/C=C/C[C@@H]1COc2cc(C(N)=O)cc3nc(NC(=O)c4cc(C)nn4CC)n1c23 [Example 5-1, (R,E)-3-(but-2-en-1-yl)-2-(1-ethyl-3-methyl-1H-pyrazole-5-carboxamido)-3,4-dihydro-5-oxa-1,2a-diazaacenaphthylene-7-carboxamide] | – | > 20000 nM |
| CCn1nc(C)cc1C(=O)Nc1nc2cc(C(N)=O)cc(OC)c2n1CCCCC1COc2cc(C(N)=O)cc3nc(NC(=O)c4cc(C)nn4CC)n1c23 (stereo in doubt) [Example 16, (S)-3-(4-(5-carbamoyl-2-(1-ethyl-3-methyl-1H-pyrazole-5-carboxamido)-7-methoxy-1H-benzo[d]imidazol-1-yl)butyl)-2-(1-ethyl-3-methyl-1H-pyrazole-5-carboxamido)-3,4-dihydro-5-oxa-1,2a-diazaacenaphthylene-7-carboxamide] | 1 °C | – |
